Experimental data as given in ChEMBL document CHEMBL5226287, “Small organic molecules targeting the energy metabolism of Mycobacterium tuberculosis” (Eur J Med Chem, 2021).
Converted amounts (≈) assume the structure as drawn. Starred links: 1 amine or outer side, 2 acyl side, 3 side chain; linkers in the order of their positions; H or OH if unused. Non-standard residues stand in square brackets, D forms with d. Residues, ends and D or L forms follow the SMILES beside them. ξ: configuration not given here. *: point of attachment. X1 = CCC(=O)C[C@@H](O)C[C@@H](C)C[C@H](N[*:1])C(=O)[*:2]; Alaψ(CH2NMeCH2CH2OH) = C[C@@H](CN(C)CCO)N*; Decanoyl(2R-Me) = CCCCCCCC[C@@H](C)C(=O)*; Ile(3ξ) = CCC(C)[C@H](N)C(=O)O; ξβ3hP = O=C(O)CC1CCCN1; Aib = CC(C)(N)C(=O)O

Tests used:
Format in all cases: functional
[1] = test system: Mycobacterium tuberculosis; experiment: Antimycobacterial activity against Mycobacterium tuberculosis QcrBT mutant assessed as reduction in bacterial growth
[2] = test system: Mycobacterium tuberculosis; experiment: Antibacterial activity against Mycobacterium tuberculosis H37Rv resistant isoniazid by CLSI broth microdilution method; settings: route inh
[3] = test system: Mycobacterium tuberculosis; experiment: Antibacterial activity against Mycobacterium tuberculosis H37Rv resistant rifampicin by CLSI broth microdilution method
[4] = test system: Mycobacterium tuberculosis; experiment: Antibacterial activity against isoniazid-resistant Mycobacterium tuberculosis H37Rv assessed as bacterial growth inhibition by microdilution method
[5] = test system: Mycobacterium tuberculosis; experiment: Antibacterial activity against rifampicin-resistant Mycobacterium tuberculosis H37Rv assessed as bacterial growth inhibition by microdilution method
[6] = test system: Mycobacterium tuberculosis; experiment: Antibacterial activity against drug resistant Mycobacterium tuberculosis H37Rv in the presence of ATP synthase
[7] = test system: Mycobacterium tuberculosis; experiment: Antibacterial activity against Mycobacterium tuberculosis H37Rv overexpressed in ATP synthase

Cc1ccn2c(C(=O)NCc3ccccc3)c(C)nc2c1
MIC90 [1]: 6.5 µM (≈ 1.82 µg/mL)

CCCc1cc(OCC(=O)Nc2ccccc2OC)c2cc(OC)ccc2n1
MIC [2]: 0.01 µg/mL (≈ 0.0263 µM) | MIC [3]: 0.01 µg/mL (≈ 0.0263 µM)

Cc1cn2c(C(=O)NCc3ccc(C(F)(F)F)cc3)c(C)nc2s1
MIC [4]: < 0.04 µM | MIC [5]: < 0.04 µM

CN(C)Cc1ccc(-c2cc3cc(Br)ccc3nc2OCc2ccncc2)cc1
MIC [6]: 0.48 µg/mL

Cc1cn2c(C(=O)NCc3ccc(N4CCN(c5ccc(C(F)(F)F)cn5)CC4)c(F)c3)c(C)nc2s1
MIC [4]: < 0.506 µM | MIC [5]: < 0.201 µM

CN(C)CCN1CCN(c2ccc(-c3cc4cc(Br)ccc4nc3OCc3ccc4ccccc4c3)cc2)CC1
MIC [6]: 0.94 µg/mL

Cc1ccn2c(C(=O)NCc3cccc(OC(C)C)c3)c(C)nc2c1
MIC90 [1]: >20 µM

CCCCCCCC[C@@H](C)C(=O)N1CCCC1CC(=O)N[C@@H](C[C@H](C)C[C@H](O)CC(=O)CC)C(=O)NC(C)(C)C(=O)NC(C)(C)C(=O)N[C@H](C(=O)N[C@H](C(=O)NC(C)(C)C(=O)NC(C)(C)C(=O)N[C@@H](C)CN(C)CCO)C(C)C)C(C)CC (stereo partly drawn) ({Decanoyl(2R-Me)}-[ξβ3hP][X1][Aib][Aib][Ile(3ξ)]V[Aib][Aib]-{Alaψ(CH2NMeCH2CH2OH)})
MIC [7]: 0.12 µg/mL (≈ 0.102 µM)
